Like-named read-outs stand apart in the source and are kept apart here.
Assays:
[1] = In vivo pharmacokinetics, single oral dose; parameters: species or system mouse; details: mice; for AUC(0-inf) / Cmax / Tmax / half-life / CL/F: male, C57BL/6 N, mouse, plasma; for CL/F: read-out: CLtot/F; for time to reach maximum plasma concentration (Cmax): oral, both 10 mg/kg and 100 mg/kg
Method: All mouse experiments were approved by and conducted in accordance with the guidelines of the Animal Experiment Committee of the University of Tokyo (permission number: P29-24). The compounds were suspended in 0.5% methylcellulose and orally administered to 8-week-old male C57BL/6 N mice (Oriental Yeast) following an overnight fast. The dosage of the compound was 10 or 100 mg/10 mL/kg. Serial blood samples ( < 50 μL per time point) were collected from the caudal vein of each mouse at 15 and 30 min, and at 1, 2, 4, 6 and 24 h post-dose using EM MYSTAR Hematocrit Capillary treated with heparin (AS ONE). Plasma was obtained by centrifugation of the blood samples. After the final blood sampling at 24 h, the mice were humanely euthanized.
Before pharmacokinetic analyses, plasma concentrations were averaged at each time point. Concentrations below the limit of quantitation were excluded from the analysis. Pharmacokinetic analyses were conducted using PhoenixWinNonlin version 8.3 (Pharsight Corp). The maximum plasma concentrations (Cmax) and times to achieve maximum plasma concentrations (Tmax) were obtained directly from the plasma concentration-time curves. The area under the concentration-time curve from zero to infinity (AUC∞) was obtained using the linear trapezoidal method in the noncompartmental analysis module. The software was allowed to determine the best-fit line for the elimination slope for all calculations. Other parameters such as elimination half-life period (t1/2), the apparent total body clearance CLtot/F, and volume of distribution Vdz/F were further calculated.
An LCMS-8060 instrument equipped with a Shimadzu Nexera series LC system (Shimadzu) was used. Berberrubine and IS were analyzed in multiple reaction monitoring mode under electronspray ionization conditions. The analytical column used was a CAPCELL PAK C18 MGIII (3 μm × 2.0 mm ID × 35 mm; OSAKA SODA) at 50 °C. The gradient mobile phase consisted of 0.1% formic acid in water (mobile phase A) and 0.1% formic acid in acetonitrile (mobile phase B) at a total flow rate of 1 mL/min. The initial mobile phase composition was 10% B, which was held constant for 0.5 min, increased in a linear fashion to 90% B over 1 min, then held constant for 0.8 min, and finally brought back to the initial condition of 10% B over 0.01 min and reequilibrated for 1 min. The transitions (precursor ion > product ion) of berberrubine and IS (methyl testosterone) are 322.11 > 307.1 and 303.1 > 109.1 (positive), respectively.

[2] = Hepatic microsomal stability assay, mouse; type: in vitro ADME; details: CLint, 1 μM, 0.2 mg/mL microsomes, NADPH, 30 min
Method: (§1) Disappearance of the parent compound over time was measured by using the amount of drug at time zero as a reference. After 5 min of preincubation, 1 mM NADPH (final concentration; the same applies to the following) was added to a mixture containing 1 μM of the compound, 0.2 mg/mL of human or mouse liver microsomes (Sekisui XenoTech), 1 mM EDTA and 0.1 M phosphate buffer (pH 7.4). The mixture solution was incubated at 37 °C for 30 min with rotation at 60 rpm. An aliquot of 50 μL of the incubation mixture was added to 250 μL of chilled acetonitrile/internal standard (IS, methyltestosterone). After centrifugation at 3150 × g for 15 min at 4 °C, the supernatants were analyzed by LC-MS/MS. Hepatic microsomal stability (mL/min/kg, CLint) was calculated according to a previous report, using 48.8 (human) or 45.4 (mouse) mg MS protein/g liver and 25.7 (human) or 87.5 (mouse) g liver/kg body weight as scaling factors. Two technical replicates were performed.

[3] = Hepatic microsomal stability assay, human; type: in vitro ADME; details: CLint, 1 μM, 0.2 mg/mL microsomes, NADPH, 30 min
Method: as §1

[4] = Water solubility, roughly examined; type: physicochemical
Method: Finally, we compared the water solubility of the three berberrubine forms. The solubility of three compounds, the reddish-black solid (quinoid-type berberrubine), the reddish-brown solid (berberrubine acetic acid salt), and the yellow solid (berberrubine acetic acid adduct), in water was roughly examined. […] On the other hand, the reddish-brown solid dissolved in about 30 mg in 1 mL of water.

[5] = test system: MITOL and mitochondrial proteins in C2C12 myoblasts; experiment: Western blot of mitochondrial proteins in C2C12 myoblasts; type: cell-based, mouse; details: 48 h; for levels of Tom20, Mfn2, HSP60 and ATP5a proteins / protein level of MITOL: C2C12, 5 μM or 10 μM
Method: (§2) Murine myoblast C2C12 cells were used for various cellular experiments in this study. Two different sources of C2C12 cells were used depending on the experiment: C2C12 cells obtained from RIKEN BRC (RCB0987) were used for gene expression, mtDNA quantification, and mitochondrial morphology analysis; C2C12 cells from ATCC (CRL-1772) were used for OCR analysis. Cells were cultured in Dulbecco’s Modified Eagle Medium (DMEM; Sigma-Aldrich or Nacalai Tesque), supplemented with 10% FBS and 1% penicillin–streptomycin. Cells were maintained in a humidified incubator at 37°C with 5% CO2.
(§3) For cellular experiments, berberine or quinoid-type berberrubine (Q-BRB) was dissolved in DMSO, and berberrubine acetic acid adduct (AcA-BRB) was dissolved in distilled H2O. Each compound was diluted in culture medium to the indicated final concentrations.
Proteins in sample buffer were separated by SDS-PAGE and transferred to Immobilon-P PVDF membranes (IPVH00010, Millipore). Blots were probed with the indicated antibodies, and protein bands on the blot were visualized using Chemi-Lumi One L (07880-70, Nacalai Tesque) or Immobilon Western Chemiluminescent HRP Substrate (WBKLS0500, Millipore). Band images were captured using a LuminoGraph I imager (WSE-6100, ATTO). Relative band intensities were quantified using Fiji/ImageJ software. Unprocessed western blot images corresponding to the data presented in the main and supplementary figures are provided in Supplementary Figures 11–16.

[6] = test system: MITOL and Tom20 mRNA in C2C12 cells; experiment: qRT-PCR analysis of C2C12 cells; type: cell-based, mouse; details: C2C12, 5 μM or 10 μM
Method: as §2, §3
Total RNA was extracted from C2C12 cells using an RNA extraction kit (RNeasy Mini Kit, Qiagen). After washing with PBS, cells were collected by trypsinization and centrifugation at 500 × g for 5 min, and the pellet was lysed according to the manufacturer’s instructions. The extracted RNA was reverse-transcribed into cDNA using a reverse transcription kit (ReverTra Ace, TOYOBO). Quantitative real-time PCR was performed using a qPCR master mix (KAPA SYBR FAST qPCR Master Mix (2X) Kit, KAPABIOSYSTEMS) and a thermal cycler (StepOnePlus, Applied Biosystems). Gene expression levels were normalized to GAPDH. Primer sets used for qRT-PCR are listed in Supplementary Table 1.

SMILES | AUC(0-inf) ([1]; single oral gavage 10 mg/kg) | Cmax ([1]; single oral gavage 10 mg/kg) | Tmax ([1]; single oral gavage 10 mg/kg) | half-life ([1]; single oral gavage 10 mg/kg) | CL/F ([1]; single oral gavage 10 mg/kg) | AUC(0-inf) ([1]; single oral gavage 100 mg/kg) | Cmax ([1]; single oral gavage 100 mg/kg) | Tmax ([1]; single oral gavage 100 mg/kg) | half-life ([1]; single oral gavage 100 mg/kg) | CL/F ([1]; single oral gavage 100 mg/kg) | time to reach maximum plasma concentration (Cmax) [1] | Vdz/F ([1]; single oral gavage 10 mg/kg) | Vdz/F ([1]; single oral gavage 100 mg/kg) | Liver microsomal metabolic stability mouse (pH7.4) [2] | Liver microsomal metabolic stability human (pH7.4) [3] | levels of Tom20, Mfn2, HSP60 and ATP5a proteins [5] | protein level of MITOL [5] | mRNA levels of MITOL and Tom20 [6] | dissolution in 1000 mL of water [4] | other results
COc1ccc2cc3[n+](cc2c1O)CCc1cc2c(cc1-3)OCO2 [AcA-BRB, berberrubine acetic acid adduct] | 95.7 ng·h/mL | 101 ng/mL | 15 min | 101 min | 1740 mL/min/kg | 2130 ng·h/mL | 3060 ng/mL | 15 min | 259 min | 783 mL/min/kg | ≤ 0.25 h | 253 L/kg | 292 L/kg | 1794 mL/min/kg | < 22.0 mL/min/kg | dose-dependent trend in elevating | significantly increased | increased | – | solubility ([4]; roughly examined): ≥ 1000 mg/mL
COc1ccc2cc3n(cc-2c1=O)CCc1cc2c(cc1-3)OCO2 [Q-BRB, quinoid-type berberrubine] | 76.5 ng·h/mL | 126 ng/mL | 15 min | 89.4 min | 2180 mL/min/kg | 5110 ng·h/mL | 8340 ng/mL | 15 min | 299 min | 326 mL/min/kg | ≤ 0.25 h | 281 L/kg | 141 L/kg | 1839 mL/min/kg | < 22.0 mL/min/kg | dose-dependent trend in elevating | significantly increased | increased | not possible to observe any dissolution | –
COc1ccc2cc3[n+](cc2c1O)CCc1cc2c(cc1-3)OCO2 [berberrubine] | – | – | – | – | – | – | – | – | – | – | – | – | – | – | – | – | – | – | did not dissolve | MITOL expression (western blot) ([5]; C2C12, 10 μM, berberrubine used as quinoid-type form): significantly upregulated; expression of other mitochondrial-associated proteins (Tom20, Mfn2, HSP60, ATP5a) ([5]; C2C12, 10 μM, quinoid-type form): markedly increased; protein levels of OPA1, Fis1 and MFF ([5]; C2C12, Q-BRB or AcA-BRB 10 μM): increased

From paper PMC13091788 (NPJ Aging, 2026)
